Measured values: patent US20030166001A1, “Toll-like receptor 3 signaling agonists and antagonists” (priority 2001, published 2003)
In the oligonucleotide strings, read from the 5' end, every base follows the letter of its sugar. An asterisk marks phosphorothioate; unmarked linkages are phosphodiester. Other units and linkages are bracketed, terminal groups are in braces. A string of capitals states the bases alone. d = 2'-deoxy (DNA)

Columns and labels:
murine TLR9 [1] = target: T1, murine TLR9 (Mus musculus, UniProt Q9EQU3); test: 293 fibroblasts stably transfected with murine TLR9 and NF-κB-luciferase reporter, ODN stimulation; conditions: for course of activity (EC50) curves with time: ODN with less stable diester linkages; for EC50: read-out: EC50 (concentration of the ligand stimulus that results in 50% maximal activation), NF-κB luciferase induction, stimulated for 16 hours, ODN titrated between 10 μM and 2 nM, FIG. 6
T1 sequence (Q9EQU3 26-1032): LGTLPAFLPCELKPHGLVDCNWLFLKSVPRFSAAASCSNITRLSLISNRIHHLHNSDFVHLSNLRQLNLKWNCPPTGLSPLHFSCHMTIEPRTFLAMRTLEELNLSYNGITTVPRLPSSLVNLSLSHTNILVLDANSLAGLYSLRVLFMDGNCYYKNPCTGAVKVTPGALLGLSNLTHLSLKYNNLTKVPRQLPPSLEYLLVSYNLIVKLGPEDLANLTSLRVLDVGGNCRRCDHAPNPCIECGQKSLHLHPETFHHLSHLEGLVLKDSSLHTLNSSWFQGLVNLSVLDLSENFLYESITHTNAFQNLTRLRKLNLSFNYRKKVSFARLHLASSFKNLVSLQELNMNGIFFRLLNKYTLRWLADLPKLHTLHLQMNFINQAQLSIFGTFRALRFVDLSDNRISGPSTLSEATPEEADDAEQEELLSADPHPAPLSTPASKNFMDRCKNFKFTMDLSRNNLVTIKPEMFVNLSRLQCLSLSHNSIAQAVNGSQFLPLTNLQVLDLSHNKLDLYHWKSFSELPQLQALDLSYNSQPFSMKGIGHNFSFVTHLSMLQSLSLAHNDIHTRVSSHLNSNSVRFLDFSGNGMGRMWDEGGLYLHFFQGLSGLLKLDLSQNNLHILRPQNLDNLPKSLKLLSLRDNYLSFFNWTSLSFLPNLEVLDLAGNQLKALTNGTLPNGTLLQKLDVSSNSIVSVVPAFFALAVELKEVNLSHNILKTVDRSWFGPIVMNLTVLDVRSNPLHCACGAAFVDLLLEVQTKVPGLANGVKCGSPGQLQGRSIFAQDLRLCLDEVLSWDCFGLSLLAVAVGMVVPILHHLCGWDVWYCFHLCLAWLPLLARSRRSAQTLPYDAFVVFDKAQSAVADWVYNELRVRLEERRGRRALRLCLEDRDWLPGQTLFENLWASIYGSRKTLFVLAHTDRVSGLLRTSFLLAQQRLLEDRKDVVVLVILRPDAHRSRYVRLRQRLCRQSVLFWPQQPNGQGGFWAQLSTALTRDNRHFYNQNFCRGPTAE
Experimental: (§1) Human 293 fibroblast cells stably transfected with murine TLR9 and an NF-κB-luciferase reporter were stimulated for 16 hours with the following fully phosphorothioated oligodeoxynucleotides (ODN):
(§2) Concentration of the stimulus was titrated between 10 μM and 2 nM. […] EC50 is defined as the concentration of the ligand stimulus that results in 50% maximal activation.
(§3) A family of stimulation curves was determined at various times of assay incubation between 1 and 24 hours. The EC50 was determined for each ligand at each time point.

hTLR9 = target: T2, hTLR9 (Homo sapiens, UniProt Q9NR96); test: 293 fibroblasts transiently transfected with hTLR9, NF-κB-luc readout or IL-8 ELISA; assay type: cell-based; conditions: CpG-ODN 2006 2 μM, LPS 100 ng/ml; 8 h luciferase, 48 h IL-8; FIG. 1
T2 construct: expressed in transfected cells; host or cells: human 293 fibroblasts (ATCC CRL-1573), transient transfection by the calcium phosphate method
T2 sequence (Q9NR96 26-1032): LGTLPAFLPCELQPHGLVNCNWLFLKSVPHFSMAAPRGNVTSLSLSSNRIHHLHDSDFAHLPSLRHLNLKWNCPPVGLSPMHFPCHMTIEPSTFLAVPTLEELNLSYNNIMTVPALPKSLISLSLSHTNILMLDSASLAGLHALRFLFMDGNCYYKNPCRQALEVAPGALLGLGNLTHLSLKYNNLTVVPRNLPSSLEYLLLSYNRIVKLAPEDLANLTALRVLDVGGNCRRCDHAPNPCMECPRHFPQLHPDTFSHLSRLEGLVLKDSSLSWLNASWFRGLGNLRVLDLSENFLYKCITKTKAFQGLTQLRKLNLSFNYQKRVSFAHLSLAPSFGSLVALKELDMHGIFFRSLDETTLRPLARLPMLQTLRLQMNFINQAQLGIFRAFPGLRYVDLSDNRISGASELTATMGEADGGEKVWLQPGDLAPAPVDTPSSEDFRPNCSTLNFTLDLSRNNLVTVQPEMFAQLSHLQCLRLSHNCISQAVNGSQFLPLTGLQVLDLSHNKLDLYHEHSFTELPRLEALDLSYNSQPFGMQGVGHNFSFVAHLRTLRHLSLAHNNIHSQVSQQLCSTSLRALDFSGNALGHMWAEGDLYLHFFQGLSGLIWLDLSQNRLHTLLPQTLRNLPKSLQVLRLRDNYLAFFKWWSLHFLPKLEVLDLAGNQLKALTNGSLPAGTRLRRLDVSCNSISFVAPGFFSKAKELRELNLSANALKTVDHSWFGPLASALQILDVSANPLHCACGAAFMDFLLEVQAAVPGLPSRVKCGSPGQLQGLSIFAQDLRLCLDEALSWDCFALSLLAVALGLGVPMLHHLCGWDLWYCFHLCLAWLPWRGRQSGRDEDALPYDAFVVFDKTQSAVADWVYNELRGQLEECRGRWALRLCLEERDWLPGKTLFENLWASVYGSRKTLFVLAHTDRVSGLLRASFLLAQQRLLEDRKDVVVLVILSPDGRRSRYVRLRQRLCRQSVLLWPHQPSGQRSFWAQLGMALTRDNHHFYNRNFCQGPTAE
Excerpt: Methods for cloning murine and human TLR9 have been described in pending U.S. patent application Ser. No. 09/954,987 and corresponding published PCT application PCT/US01/29229, both filed Sep. 17, 2001, the contents of which are incorporated by reference. Human TLR9 cDNA and murine TLR9 cDNA in pT-Adv vector (from Clonetech) were individually cloned into the expression vector pcDNA3.1(−) from Invitrogen using the EcoRI site. Utilizing a “gain of function” assay it was possible to reconstitute human TLR9 (hTLR9) and murine TLR9 (mTLR9) signaling in CpG-DNA non-responsive human 293 fibroblasts (ATCC, CRL-1573). The expression vectors mentioned above were transfected into 293 fibroblast cells using the calcium phosphate method.
Since NF-κB activation is central to the IL-1/TLR signal transduction pathway (Medzhitov R et al. (1998) Mol Cell 2:253-258 (1998); Muzio M et al. (1998) J Exp Med 187:2097-101), cells were transfected with hTLR9 or co-transfected with hTLR9 and an NF-κB-driven luciferase reporter construct. […] After stimulus with CpG-ODN (2006, 2 μM, […], SEQ ID NO:15), GpC-ODN (2006-GC, 2 μM, […], SEQ ID NO:16), LPS (100 ng/ml) or media, NF-κB activation by luciferase readout (8 h, FIG. 1A) or IL-8 production by ELISA (48 h, FIG. 1B) were monitored. […]

murine TLR9 [2] = target: T1, murine TLR9
Experimental: as §1, §2, §3

[3] = assay incubation between 1 and 24 hours, FIG. 7

Substance: T*C_G*T*C_G*T*T*T*T_G*T*C_G*T*T*T*T*G*T*C_G*T*T [ODN 5746]
- course of activity (EC50) curves with time (murine TLR9 [1]; [3]): turn upward with time

Substance: lipopolysaccharide [LPS]
- response of cells expressing hTLR9 (NF-κB activation by luciferase readout, IL-8 production by ELISA) (hTLR9): not

Substance: T*C*C*A*T*G*A*C_G_T*T*T*T*T*G*A*T_G*T*T [ODN 5902]
- course of activity (EC50) curves with time (murine TLR9 [1]; [3]): turn upward with time

Substance: T*C*G*T*C*G*T*T*T*T_G_T_C_G_T*T*T*T*G*T*C*G*T*T [ODN 5497]
- course of activity (EC50) curves with time (murine TLR9 [1]; [3]): turn upward with time

Substance: T*C*C*A*T*G*A*C*G*T*T*T*T*T (dT*dC*dC*dA*dT*dG*dA*dC*dG*dT*dT*dT*dT*dT) [ODN 5897]
- EC50 (murine TLR9 [1]): 1220 nM

Substance: T*C*C*A*T*G*A*C*G*T*T*T*T*T*G*A*T*G*T*T (TCCATGACGTTTTTGATGTT; chemistry not given here) [ODN 5890]
- maximal activity (maximal fold induction) versus time (murine TLR9 [2]): less efficient at delivering high activity
- affinity of ligand/receptor interaction from EC50 versus time curves (murine TLR9 [1]; [3]): higher affinity
- EC50 (murine TLR9 [1]): 42 nM

Substance: T*C*G*T*C*G*T*T*T*T*G*T*C*G*T*T*T*T*G*T*C*G*T*T [ODN 2006]
- response of cells expressing hTLR9 (NF-κB activation by luciferase readout, IL-8 production by ELISA) (hTLR9): responded
